Values after ≈ are worked out from the molar mass of the structure shown.
Columns and labels:
[1] = test system: Cutibacterium acnes (ATCC 6919); test: Antibacterial assay (MIC, broth microdilution, Presto Blue); type: cell-based; conditions: ATCC6919, C. acnes ATCC 6919, 72 hours, anaerobic, read-out: minimum inhibitory concentration (MIC)
Procedure: The ethanolic extract of Plectranthus […] tested against Cutibacterium acnes (ATCC 6919). The C. acnes bacteria was cultured from a Kwik-Stick on mouse heart and brain agar and then incubated at 37° C. for 72 hours under anaerobic conditions before the assay was done. The 72 hour old bacterial culture was dissolved in brain heart infusion broth and the suspension was adjusted to a 0.5 McFarland standard turbidity. This led to 10^5-10^6 colony forming units (CFU)/ml. In a sterile 96-well plate, 100 μl of the samples from the stock solution that consisted of the plant extracts (2 mg/ml dissolved in 10% dimethyl sulphoxide (DMSO)) and tetracycline the positive control (0.2 mg/ml) was diluted with broth. Twofold serial dilutions were done in broth over a range to give the concentrations 500-3.9 μg/ml for the plant extract and 50-0.3 μg/ml for tetracycline. To all the wells of the 96-well plate, 100 μl of bacterial suspension was added. The solvent control wells contained 2.5% DMSO with bacterial suspension and no plant samples and the negative control, bacterial suspension with no plant samples. The plates were incubated at 37° C. for 72 hours under anaerobic conditions.

MMP-9 enzyme = biological target: T1, MMP-9 enzyme (Homo sapiens, UniProt P14780); test: Matrix metalloproteinase-9 assay (colorimetric kit); type: biochemical; conditions: at 0.411 μg/ml, single concentration
T1 construct: purchased Enzo Life Sciences BML-AK410
T1 sequence (P14780 107-444 limits assumed): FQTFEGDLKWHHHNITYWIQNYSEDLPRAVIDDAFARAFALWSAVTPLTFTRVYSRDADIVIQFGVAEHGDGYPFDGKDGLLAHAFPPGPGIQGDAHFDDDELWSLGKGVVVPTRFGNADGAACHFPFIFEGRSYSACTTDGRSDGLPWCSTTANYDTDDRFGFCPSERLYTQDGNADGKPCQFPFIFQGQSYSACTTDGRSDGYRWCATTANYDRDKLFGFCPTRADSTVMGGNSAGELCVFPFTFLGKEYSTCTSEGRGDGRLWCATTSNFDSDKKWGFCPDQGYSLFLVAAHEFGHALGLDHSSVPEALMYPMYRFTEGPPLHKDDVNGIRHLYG
Procedure: The MMP-9 Colorimetric Drug Discovery Kit (BML-AK410) from Enzo Life Sciences was used. The experiment was carried out as described in the instruction manual. The MMP chromogenic substrate (Ac-PLG-[2-mercapto-4-methyl-pentanoyl]-LG-OC2H5) and the inhibitor N-Isobutyl-N-(4-methoxyphenylsulfonyl)glycyl hydroxamic acid (NNGH) was thawed to room temperature. The inhibitor was diluted 1/200 in assay buffer (50 mM HEPES, 10 mM CaCl2, 0.05% Brij-35, 1 mM DTNB, pH 7.5) and warmed until 37° C. The substrate was diluted 1/25 in assay buffer to the required volume. The MMP-9 enzyme was diluted in assay buffer to 1/60 and warmed until 37° C. just before the assay. The plant extract was dissolved in dimethyl sulfoxide (DMSO) to a starting concentration of 2 mg/ml.
In the plant extract wells, 50 μl of plant extract and 90 μl of buffer was added to the first well of the 96 well plate (½ volume). To the rest of the plant extract wells, 70 μl of buffer was added and the plant extracts serially diluted. Assay buffer was plated in the rest of the relevant wells as follows: blank 90 μl, control 70 μl, and NNGH 50 μl. […] The plates were continuously read at A412nm by using a BIO-TEK Power Wave Multiwell plate reader (A.D.P., Weltevreden Park, South Africa) at one (1) minute intervals for twenty (20) minutes using KC Junior software (Highland Park, Winooski, Vermont, USA).

[2] = test system: COX-2 protein levels in HT-29 cells; conditions: at 3.6 μg/ml; cited from earlier work
[3] = DPPH radical scavenging assay; type: biochemical
Procedure: The antioxidant activities of Plectranthus […] ethanolic extract was investigated using 1,1-Diphenyl-2-picrylhydrazyl (DPPH) free radical scavenging assay as described by Mavundza (Mavundza, 2010). To the top wells of a 96-well ELISA plate 200 μl of distilled water was added and to the remaining wells 110 μl of distilled water as a medium. Twenty microliters of plant extract and the controls was added to the first top wells that followed a double dilution. To each of the wells 90 μl of 90 μM DPPH ethanolic solution was added and left to incubate covered with aluminium foil for 30 minutes at room temperature. The final concentrations for the Plectranthus […] ethanolic extracts ranged from 3.9 to 500 μg/ml (Mavundza, 2010). […] The radical scavenging capacities of the extracts were determined by using a BIO-TEK Power Wave Multiwell plate reader ([…], South Africa) at 515 nm using KC Junior software (Highland Park, Winooski, Vermont, USA) to measure the disappearance of DPPH at 515 nm. The radical scavenging activity was determined as a percentage DPPH radical-scavenging that was calculated by the following equation, where AC is the absorbance of the control solution that only contains DPPH and AS is the absorbance of the plant sample in DPPH solution: % DPPH radical-scavenging=(AC-AS)/AC×100 […]

[4] = NO antioxidant (nitric oxide scavenging) assay; type: biochemical

O=c1cc(-c2ccc(O)c(O)c2)oc2cc(O)cc(O)c12 [Luteolin]
MIC [1]: 62.5 µg/mL (≈ 218 µM)

COc1ccc(S(=O)(=O)N(CC(=O)NO)CC(C)C)cc1 [positive control, N-Isobutyl-N-(4-methoxyphenylsulfonyl)glycyl hydroxamic acid]
MMP-9 inhibition (MMP-9 enzyme): 96%

O=C(/C=C/c1ccc(O)c(O)c1)O[C@H](Cc1ccc(O)c(O)c1)C(=O)O [rosmarinic acid]
effect on COX-2 protein levels [2]: reduced COX-2 protein levels in HT-29 cells to levels comparable to that of the control cells

CN(C)[C@@H]1C(O)=C(C(N)=O)C(=O)[C@@]2(O)C(O)=C3C(=O)c4c(O)cccc4[C@@](C)(O)[C@H]3C[C@@H]12 [tetracycline]
MIC [1]: 0.78 µg/mL (≈ 1.76 µM)

O=C1O[C@H]([C@@H](O)CO)C(O)=C1O [vitamin C, L-ascorbic acid]
DPPH antioxidant activity IC50 [3]: 9.0 ± 2.0 µg/mL
nitric oxide (NO) antioxidant activity IC50 [4]: 65.8 ± 5.9 µg/mL

Source: US12097235B2, “Anti-acne pharmaceutical compositions” (priority 2018, dated 2024)
